{"source": "ChEMBL document CHEMBL5727040", "about": "“Factor XIa inhibitors” (2018)", "key": {"[1]": {"biological_target": "Coagulation factor XI (Homo sapiens, UniProt P03951)", "sequence (P03951 19-387 limits assumed)": "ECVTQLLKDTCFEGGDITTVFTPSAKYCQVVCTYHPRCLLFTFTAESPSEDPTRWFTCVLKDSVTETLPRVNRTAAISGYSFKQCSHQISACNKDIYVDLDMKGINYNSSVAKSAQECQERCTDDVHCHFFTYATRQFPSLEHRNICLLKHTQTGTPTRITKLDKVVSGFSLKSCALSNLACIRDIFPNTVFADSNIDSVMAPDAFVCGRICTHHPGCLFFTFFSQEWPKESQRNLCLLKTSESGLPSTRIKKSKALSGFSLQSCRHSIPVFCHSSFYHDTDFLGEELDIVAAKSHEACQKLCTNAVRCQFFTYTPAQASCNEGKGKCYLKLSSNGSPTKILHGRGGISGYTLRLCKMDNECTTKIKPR", "sequence (P03951 388-625 limits assumed)": "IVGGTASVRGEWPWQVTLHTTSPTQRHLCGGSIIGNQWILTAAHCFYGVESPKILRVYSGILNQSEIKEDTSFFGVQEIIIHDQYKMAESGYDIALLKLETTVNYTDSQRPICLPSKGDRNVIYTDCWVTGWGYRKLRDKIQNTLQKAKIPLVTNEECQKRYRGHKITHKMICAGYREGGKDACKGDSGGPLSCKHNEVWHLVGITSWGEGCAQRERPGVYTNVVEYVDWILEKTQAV", "assay": "Inhibition Assay: Factor XIa determinations were made in 50 mM HEPES buffer at pH 7.4 containing 150 mM NaCl, 5 mM CaCl2, and 0.1% PEG 8000 (polyethylene glycol; JT Baker or Fisher Scientific). Determinations were made using purified human Factor XIa at a final concentration of 40 pM (Sekisui Diagnostics) and the synthetic substrate, Z-Gly-Pro-Arg-AFC, TFA salt (Sigma #C0980) at a concentration of 100 μM."}, "[2]": {"biological_target": "Plasma kallikrein (Homo sapiens, UniProt P03952)", "sequence (P03952 20-390 limits assumed)": "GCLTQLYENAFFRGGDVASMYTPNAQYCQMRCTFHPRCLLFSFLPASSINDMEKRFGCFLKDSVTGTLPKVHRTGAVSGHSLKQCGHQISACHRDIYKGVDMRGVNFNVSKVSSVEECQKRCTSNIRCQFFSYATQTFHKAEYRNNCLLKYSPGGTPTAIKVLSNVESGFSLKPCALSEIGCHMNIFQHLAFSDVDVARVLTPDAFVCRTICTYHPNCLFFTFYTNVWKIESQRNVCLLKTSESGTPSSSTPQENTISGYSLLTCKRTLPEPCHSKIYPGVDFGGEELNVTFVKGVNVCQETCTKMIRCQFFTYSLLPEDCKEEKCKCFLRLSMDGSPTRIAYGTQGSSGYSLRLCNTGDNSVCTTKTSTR", "sequence (P03952 391-638 limits assumed)": "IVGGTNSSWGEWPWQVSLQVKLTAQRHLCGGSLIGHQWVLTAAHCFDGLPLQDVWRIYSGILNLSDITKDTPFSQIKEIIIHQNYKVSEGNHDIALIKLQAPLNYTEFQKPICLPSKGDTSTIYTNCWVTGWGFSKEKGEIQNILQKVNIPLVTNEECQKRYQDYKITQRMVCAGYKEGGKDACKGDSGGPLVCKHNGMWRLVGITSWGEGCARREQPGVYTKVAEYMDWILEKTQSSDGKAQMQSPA", "assay": "Kallikrein Assay: The effectiveness of a compound of the present invention as an inhibitor of Kallikrein can be determined using a relevant purified serine protease, and an appropriate synthetic substrate. The rate of hydrolysis of the chromogenic or fluorogenic substrate by the relevant serine protease was measured both in the absence and presence of compounds of the present invention. Assays were conducted at room temperature or at 37° C. […] A decrease in the rate of fluorescence change in the presence of inhibitor is indicative of enzyme inhibition. Such methods are known to one skilled in the art. […] Times required to achieve equilibration between enzyme and inhibitor were determined in control experiments. The reactions were performed under linear progress curve conditions and fluorescence increase measured at 405 Ex/510 Em nm. […] IC50 was determined by inflection point from a four parameter logistic curve fit. Ki was calculated using the Cheng Prusoff equation, Ki=IC50/(1+([S]/Km))."}}, "data": [{"smiles": "O=C(NC1CC=CC1)N1CCC(c2cccc([C@H](Cc3ccccc3)c3ccc(-c4cc(Cl)ccc4-n4cnnn4)c[n+]3[O-])c2)CC1", "values": [{"measurement": "IC50", "setting": "[1]", "value": 18.5, "unit": "nM"}, {"measurement": "IC50", "setting": "[2]", "value": 696, "unit": "nM"}]}]}
